Values joined by “and” are separate entries in the source; they are usually repeats but may differ in a detail not shown here. Identical values can stand only once. HELM strings list units from the 5' end as sugar, base in round brackets, then linkage (d deoxyribose, r ribose, m 2'-O-methyl, p phosphodiester). Strings are as the collection lists them, not checked against the first reports. ss, as = sense and antisense strand; [lna] = locked nucleic acid (LNA); [una] = unlocked nucleic acid; [hna] = hexitol nucleic acid; [fl2r] = 2'-fluoro
Also: test system not given here.

The conditions of this data set: siRNA.
As for “RNA1{r(U)p.r(C)p.r(C)p.m(U)p.r(A)p.r(G)p.r(C)p.r(U)p.r(G)p.r(U)p.r(C)p.r(U)p.r(U)p.r(G)p.r(U)p.r(C)p.r(C)p.r(C)p.r(U)p.r(T)p.r(T)}|RNA2{r(A)p.r(G)p.r(G)p.r(G)p.r(A)p.r(C)p.r(A)p.r(A)p.r(G)p.r(A)p.r(C)p.r(A)p.r(G)p.r(C)p.m(U)p.r(A)p.r(G)p.r(G)p.r(A)p.r(T)p.r(T)}$$$RNA1{StrandType:ss}|RNA2{StrandType:as}$”, the target mRNA knockdown was 71%. The substance “RNA1{r(U)p.m(U)p.m(A)p.r(A)p.r(A)p.r(G)p.m(G)p.r(G)p.r(C)p.r(G)p.r(A)p.r(G)p.r(A)p.r(A)p.r(G)p.r(A)p.r(C)p.r(C)p.r(G)p.r(T)p.r(T)}|RNA2{r(C)p.r(G)p.r(G)p.r(U)p.r(C)p.r(U)p.r(U)p.r(C)p.r(U)p.r(C)p.r(G)p.r(C)p.r(C)p.r(C)p.r(U)p.r(U)p.m(U)p.r(A)p.r(A)p.r(T)p.r(T)}$$$RNA1{StrandType:ss}|RNA2{StrandType:as}$” gave a target mRNA knockdown of 85%. The same measure for “RNA1{r(U)p.r(C)p.[fl2r](C)p.r(A)p.r(A)p.r(G)p.r(C)p.r(U)p.r(U)p.r(C)p.r(C)p.r(U)p.r(C)p.r(G)p.r(U)p.[fl2r](U)p.[fl2r](G)p.r(G)p.r(U)p.r(T)p.r(T)}|RNA2{r(A)p.r(C)p.[fl2r](C)p.[fl2r](A)p.r(A)p.r(C)p.r(G)p.r(A)p.r(G)p.r(G)p.r(A)p.r(A)p.r(G)p.r(C)p.r(U)p.[fl2r](U)p.r(G)p.r(G)p.r(A)p.r(T)p.r(T)}$$$RNA1{StrandType:ss}|RNA2{StrandType:as}$”: 65%. To “RNA1{r(G)p.r(G)p.r(A)p.r(C)p.r(A)p.r(U)p.r(U)p.r(C)p.r(A)p.r(G)p.r(A)p.r(A)p.r(C)p.r(A)p.r(A)p.r(G)p.r(A)p.r(A)p.r(A)p.[una](U)p.[una](U)}|RNA2{r(U)p.r(U)p.r(U)p.r(C)p.[una](U)p.r(U)p.r(G)p.r(U)p.r(U)p.r(C)p.r(U)p.r(G)p.r(A)p.r(A)p.r(U)p.r(G)p.r(U)p.r(C)p.r(C)p.[una](U)p.[una](U)}$$$RNA1{StrandType:ss}|RNA2{StrandType:as}$” belongs 37%; to “RNA1{m(A)p.r(U)p.m(C)p.r(A)p.m(C)p.r(A)p.m(A)p.r(A)p.m(C)p.r(C)p.m(C)p.r(C)p.m(U)p.r(A)p.m(G)p.r(A)p.m(G)p.r(G)p.m(G)p.r(T)p.r(T)}|RNA2{r(C)p.r(C)p.r(C)p.r(U)p.r(C)p.r(U)p.m(A)p.r(G)p.r(G)p.r(G)p.r(G)p.r(U)p.r(U)p.r(U)p.r(G)p.r(U)p.r(G)p.m(A)p.r(U)p.r(T)p.r(T)}$$$RNA1{StrandType:ss}|RNA2{StrandType:as}$”, 35%; to “RNA1{r(A)p.r(U)p.r(C)p.m(U)p.r(A)p.r(C)p.r(C)p.r(C)p.r(A)p.r(G)p.r(C)p.r(U)p.r(C)p.r(U)p.r(C)p.r(C)p.r(C)p.r(U)p.r(U)p.r(T)p.r(T)}|RNA2{r(A)p.r(A)p.r(G)p.r(G)p.r(G)p.r(A)p.r(G)p.r(A)p.r(G)p.r(C)p.r(U)p.r(G)p.r(G)p.r(G)p.m(U)p.r(A)p.r(G)p.r(A)p.r(U)p.r(T)p.r(T)}$$$RNA1{StrandType:ss}|RNA2{StrandType:as}$”, 77%. To “RNA1{r(G)p.r(A)p.r(A)p.r(A)p.r(C)p.m(U)p.m(G)p.r(G)p.m(U)p.r(A)p.r(C)p.m(U)p.r(U)p.r(U)p.r(C)p.r(C)p.r(C)p.r(C)p.r(C)p.r(T)p.r(T)}|RNA2{r(G)p.r(G)p.r(G)p.r(G)p.r(G)p.r(A)p.r(A)p.r(A)p.r(G)p.m(U)p.r(A)p.r(C)p.m(C)p.m(A)p.r(G)p.r(U)p.r(U)p.r(U)p.r(C)p.r(T)p.r(T)}$$$RNA1{StrandType:ss}|RNA2{StrandType:as}$” belongs 85%. Regarding “RNA1{[lna](A)p.r(U)p.r(C)p.r(U)p.r(G)p.r(A)p.r(A)p.r(G)p.r(A)p.r(A)p.r(G)p.r(G)p.r(A)p.r(G)p.r(A)p.r(A)p.r(A)p.r(A)p.r(A)p.[lna](T)p.[lna](T)}|RNA2{[lna](T)p.r(U)p.r(U)p.r(U)p.r(U)p.r(C)p.r(U)p.r(C)p.r(C)p.r(U)p.r(U)p.r(C)p.r(U)p.r(U)p.r(C)p.r(A)p.r(G)p.r(A)p.r(U)p.[lna](T)p.[lna](T)}$$$RNA1{StrandType:ss}|RNA2{StrandType:as}$”, the target mRNA knockdown was 65% and 75%. To “RNA1{m(A)p.r(A)p.m(G)p.r(G)p.m(A)p.r(G)p.m(A)p.r(U)p.m(C)p.r(A)p.m(A)p.r(C)p.m(A)p.r(U)p.m(U)p.r(U)p.m(U)p.r(C)p.m(A)p.r(T)p.r(T)}|RNA2{m(U)p.r(G)p.m(A)p.r(A)p.m(A)p.r(A)p.m(U)p.r(G)p.m(U)p.r(U)p.m(G)p.r(A)p.m(U)p.r(C)p.m(U)p.r(C)p.m(C)p.r(U)p.m(U)p.r(T)p.r(T)}$$$RNA1{StrandType:ss}|RNA2{StrandType:as}$” belongs 75%. The same measure for “RNA1{m(A)p.r(A)p.m(A)p.r(C)p.m(C)p.r(C)p.m(C)p.r(U)p.m(A)p.r(G)p.m(A)p.r(G)p.m(G)p.r(G)p.m(C)p.r(A)p.m(A)p.r(G)p.m(U)p.r(T)p.r(T)}|RNA2{r(A)p.r(C)p.r(U)p.r(U)p.r(G)p.r(C)p.r(C)p.r(C)p.r(U)p.r(C)p.r(U)p.r(A)p.r(G)p.r(G)p.r(G)p.r(G)p.r(U)p.r(U)p.r(U)p.r(T)p.r(T)}$$$RNA1{StrandType:ss}|RNA2{StrandType:as}$”: 62%; for “RNA1{r(A)p.r(A)p.r(A)p.r(C)p.r(C)p.r(C)p.r(C)p.r(U)p.r(A)p.r(G)p.r(A)p.r(G)p.r(G)p.r(G)p.r(C)p.r(A)p.r(A)p.r(G)p.r(U)p.r(T)p.r(T)}|RNA2{[fl2r](A)p.r(C)p.[fl2r](U)p.r(U)p.[fl2r](G)p.r(C)p.[fl2r](C)p.r(C)p.[fl2r](U)p.r(C)p.[fl2r](U)p.r(A)p.[fl2r](G)p.r(G)p.[fl2r](G)p.r(G)p.[fl2r](U)p.r(U)p.[fl2r](U)p.r(T)p.r(T)}$$$RNA1{StrandType:ss}|RNA2{StrandType:as}$”: 37%; for “RNA1{[hna](G)p.[hna](A)p.[hna](C)p.r(G)p.r(U)p.r(A)p.r(A)p.r(A)p.r(C)p.r(G)p.r(G)p.r(C)p.r(C)p.r(A)p.r(C)p.r(A)p.r(A)p.[hna](G)p.[hna](U)p.r(U)p.d(T)}|RNA2{r(A)p.r(C)p.r(U)p.r(U)p.r(G)p.r(U)p.r(G)p.r(G)p.r(C)p.r(C)p.r(G)p.r(U)p.r(U)p.r(U)p.r(A)p.r(C)p.r(G)p.r(U)p.[lna](C)p.[lna](G)p.r(C)}$$$RNA1{StrandType:ss}|RNA2{StrandType:as}$”: 84.7%.

The substance “RNA1{r(A)p.r(A)p.r(A)p.r(C)p.r(G)p.r(A)p.r(G)p.r(A)p.r(G)p.r(A)p.r(G)p.r(C)p.r(C)p.r(C)p.r(A)p.r(C)p.r(C)p.r(U)p.r(U)p.r(T)p.r(T)}|RNA2{r(A)p.r(A)p.r(G)p.r(G)p.m(U)p.r(G)p.r(G)p.r(G)p.r(C)p.r(U)p.r(C)p.r(U)p.r(C)p.r(U)p.r(C)p.r(G)p.r(U)p.r(U)p.r(U)p.r(T)p.r(T)}$$$RNA1{StrandType:ss}|RNA2{StrandType:as}$” returned a target mRNA knockdown of 57%.

For “RNA1{[fl2r](C)p.r(A)p.r(G)p.[fl2r](C)p.r(A)p.r(A)p.r(A)p.[fl2r](C)p.[fl2r](C)p.r(A)p.[fl2r](C)p.r(G)p.r(A)p.[fl2r](U)p.[fl2r](C)p.r(A)p.r(A)p.[fl2r](U)p.r(A)p.r(T)p.r(T)}|RNA2{[fl2r](U)p.r(A)p.[fl2r](U)p.[fl2r](U)p.r(G)p.r(A)p.[fl2r](U)p.[fl2r](C)p.r(G)p.[fl2r](U)p.r(G)p.r(G)p.[fl2r](U)p.[fl2r](U)p.[fl2r](U)p.r(G)p.[fl2r](C)p.[fl2r](U)p.r(G)p.r(T)p.r(T)}$$$RNA1{StrandType:ss}|RNA2{StrandType:as}$”, the target mRNA knockdown was found to be 71%. The same measure for “RNA1{[lna](G)p.[lna](C)p.[lna](T)p.r(G)p.r(A)p.r(C)p.[lna](C)p.r(C)p.r(U)p.[lna](G)p.r(A)p.r(A)p.r(G)p.[lna](T)p.[lna](T)p.r(C)p.r(A)p.r(U)p.r(C)p.[lna](T)p.[lna](T)}|RNA2{r(G)p.r(A)p.r(U)p.r(G)p.r(A)p.r(A)p.r(C)p.r(U)p.r(U)p.r(C)p.r(A)p.r(G)p.r(G)p.r(G)p.r(U)p.r(C)p.r(A)p.r(G)p.r(C)p.[lna](T)p.[lna](T)}$$$RNA1{StrandType:ss}|RNA2{StrandType:as}$”: 0%. The same measure for “RNA1{r(U)p.r(C)p.r(C)p.r(G)p.r(G)p.r(C)p.[fl2r](U)p.r(A)p.r(A)p.r(C)p.r(U)p.r(C)p.[fl2r](U)p.r(G)p.r(A)p.r(G)p.r(G)p.r(A)p.r(C)p.r(T)p.r(T)}|RNA2{r(G)p.r(U)p.r(C)p.r(C)p.r(U)p.[fl2r](C)p.r(A)p.r(G)p.r(A)p.r(G)p.r(U)p.r(U)p.r(A)p.r(G)p.r(C)p.r(C)p.[fl2r](G)p.r(G)p.r(A)p.r(T)p.r(T)}$$$RNA1{StrandType:ss}|RNA2{StrandType:as}$”: 85%; for “RNA1{r(G)p.r(C)p.[fl2r](U)p.r(G)p.r(A)p.r(A)p.r(C)p.[fl2r](U)p.r(A)p.r(G)p.r(U)p.r(C)p.r(G)p.r(A)p.r(A)p.r(A)p.r(G)p.r(A)p.r(A)p.r(T)p.r(T)}|RNA2{r(U)p.r(U)p.r(C)p.r(U)p.r(U)p.r(U)p.r(C)p.r(G)p.r(A)p.r(C)p.[fl2r](U)p.r(A)p.r(G)p.r(U)p.r(U)p.[fl2r](C)p.r(A)p.r(G)p.r(C)p.r(T)p.r(T)}$$$RNA1{StrandType:ss}|RNA2{StrandType:as}$”: 78%; for “RNA1{[lna](C)p.r(U)p.r(A)p.r(A)p.r(G)p.r(G)p.r(A)p.r(C)p.r(C)p.r(U)p.r(A)p.r(A)p.r(C)p.r(A)p.r(A)p.r(A)p.r(G)p.r(U)p.r(U)p.r(U)p.r(U)}|RNA2{r(A)p.r(A)p.r(C)p.r(U)p.r(U)p.r(U)p.r(G)p.r(U)p.r(U)p.r(A)p.r(G)p.r(G)p.r(U)p.r(C)p.r(C)p.r(U)p.r(U)p.r(A)p.r(G)p.r(U)p.r(U)}$$$RNA1{StrandType:ss}|RNA2{StrandType:as}$”: 64%. As to “RNA1{m(A)p.r(G)p.m(U)p.r(U)p.m(A)p.r(A)p.m(C)p.r(C)p.m(C)p.r(G)p.m(G)p.r(G)p.m(A)p.r(C)p.m(U)p.r(U)p.m(G)p.r(G)p.m(A)p.r(T)p.r(T)}|RNA2{r(U)p.r(C)p.r(C)p.r(A)p.r(A)p.m(G)p.r(U)p.r(C)p.r(C)p.r(C)p.m(G)p.m(G)p.m(G)p.r(U)p.r(U)p.r(A)p.r(A)p.r(C)p.r(U)p.r(T)p.r(T)}$$$RNA1{StrandType:ss}|RNA2{StrandType:as}$”, the target mRNA knockdown stood at 45%.

For the origin of these results see the OligoGym collection.
